Measurements: ChEMBL document CHEMBL5038651, “Design, Synthesis, and Biological Evaluation of 2-((4-Bisarylmethyl-piperazin-1-yl)methyl)benzonitrile Derivatives as HCV Entry Inhibitors” (J Med Chem, 2022)
Calls of active or inactive are those of the source. The calls are words filed in the database; no cut-off is given here.

How the values were obtained:
[1] = Cytotoxicity against human Huh7.5 cells assessed as reduction in cell viability incubated for 96 hrs by MTT assay; assay type: toxicity, cell-based, Huh-7.5; conditions: Huh7.5 cells
Hepatitis C virus [2] = experiment: Antiviral activity against HCV infected in human Huh7.5 cells incubated for 72 hrs by in-cell western assay; assay type: functional, organism-based, Hepacivirus hominis; conditions: Huh7.5, 72 h
[3] = Selectivity index, ratio of CC50 for cytotoxicity against human Huh7.5.1 cells to EC50 for antiviral activity against HCV infected in human Huh7.5.1 cells; assay type: toxicity, cell-based
[4] = molecular target: Histamine H1 receptor (Homo sapiens) (UniProt P35367); experiment: Antagonist activity against H1 receptor (unknown origin) expressed in HEK cells at 1 uM relative to control; assay type: functional, cell-based
Hepatitis C virus [5] = experiment: Antiviral activity against HCV infected in human Huh7.5 cells assessed as reduction in viral RNA level preincubated for 2 hrs prior to viral infection and measured after 72 hrs by RT-qPCR analysis; assay type: functional, organism-based; conditions: Hepacivirus hominis, time 74.0 hrs
Hepatitis C virus [6] = experiment: Antiviral activity against HCV infected in human Huh7.5 cells assessed as reduction in viral RNA level measured after 72 hrs by RT-qPCR analysis; assay type: functional, organism-based; conditions: Hepacivirus hominis
Hepatitis C virus [7] = experiment: Antiviral activity against HCV infected in human Huh7.5 cells assessed as reduction in HCV core protein expression measured after 72 hrs by Western blotting analysis; assay type: functional, organism-based; conditions: Hepacivirus hominis
Hepatitis C virus [8] = experiment: Antiviral activity against HCV infected in human Huh7.5 cells assessed as reduction in HCV core protein expression preincubated for 2 hrs followed by viral infection and measured after 72 hrs by Western blotting analysis; assay type: functional, organism-based; conditions: Hepacivirus hominis, time 74.0 hrs
Hepatitis C virus [9] = experiment: Antiviral activity against HCV infected in human Huh7.5 cells assessed as reduction in HCV core protein expression pre-infected with virus for 2 hrs followed by compound addition and measured after 72 hrs by Western blotting analysis; assay type: functional, organism-based; conditions: Hepacivirus hominis
Hepatitis C virus [10] = experiment: Antiviral activity against HCV infected in human Huh7.5 cells carrying HCV subgenomic replicons assessed as inhibition of viral replication at 1.4 uM; assay type: functional, organism-based; conditions: Hepacivirus hominis
[11] = Selectivity index, ratio of CC50 for cytotoxicity against human Huh7.5 cells infected with HCVcc to EC50 for antiviral activity against HCVcc infected in human Huh7.5 cells; assay type: toxicity, cell-based; conditions: read-out: Ratio CC50/EC50
Hepatitis C virus [12] = experiment: Antiviral activity against HCV infected in human Huh7.5 cells assessed as reduction in HCV core protein expression at 6.4 nM incubated for 72 hrs by in-cell western assay; assay type: functional, organism-based; conditions: Hepacivirus hominis
Hepatitis C virus [13] = experiment: Antiviral activity against HCV infected in human Huh7.5 cells assessed as reduction in viral RNA level pre-infected with virus for 2 hrs followed by compound addition and measured after 72 hrs by RT-qPCR analysis; assay type: functional, organism-based; conditions: Hepacivirus hominis
Hepatitis C virus [14] = experiment: Antiviral activity against HCVcc infected in human Huh7.5 cells assessed as inhibition of viral replication; assay type: functional, organism-based, Hepacivirus hominis
Hepatitis C virus [15] = experiment: Antiviral activity against HCV infected in human Huh7.5 cells carrying HCV subgenomic replicons assessed as inhibition of viral replication; assay type: functional, organism-based, Hepacivirus hominis
[16] = Cytotoxicity against human Huh7.5 cells infected with HCVcc assessed as reduction in cell viability incubated for 96 hrs by MTT assay; assay type: toxicity, cell-based, Huh-7.5
[17] = Cytotoxicity against human Huh7.5 cells carrying HCV subgenomic replicons assessed as reduction in cell viability incubated for 96 hrs by MTT assay; assay type: toxicity, cell-based, Huh-7.5
Hepacivirus hominis = experiment: Binding affinity to HCV E1 protein at 12.5 to 200 uM by SPR analysis; conditions: dose 12.5-200 µM
[18] = MRT in Sprague-Dawley rat at 15 mg/kg, po administered as single dose measured upto 24 hrs by LC-MS/MS analysis; assay type: ADME, organism-based; conditions: in vivo
[19] = AUC (0 to infinity) in Sprague-Dawley rat at 15 mg/kg, po administered as single dose measured upto 24 hrs by LC-MS/MS analysis; assay type: ADME, organism-based; parameters: route oral, dose 15 mg/kg, time <=24; conditions: in vivo
[20] = Half life in Sprague-Dawley rat at 15 mg/kg, po administered as single dose measured upto 24 hrs by LC-MS/MS analysis; assay type: ADME, organism-based; conditions: in vivo
[21] = Tmax in Sprague-Dawley rat at 15 mg/kg, po administered as single dose measured upto 24 hrs by LC-MS/MS analysis; assay type: ADME, organism-based; conditions: in vivo
[22] = Cmax in Sprague-Dawley rat at 15 mg/kg, po administered as single dose measured upto 24 hrs by LC-MS/MS analysis; assay type: ADME, organism-based; parameters: route oral, dose 15 mg/kg, time <=24; conditions: in vivo
[23] = Plasma concentration in Sprague-Dawley rat at 15 mg/kg, po administered as single dose measured up to 24 hrs by LC-MS/MS analysis; assay type: ADME, organism-based

Histamine H1 receptor (Homo sapiens), sequence (P35367 whole entry): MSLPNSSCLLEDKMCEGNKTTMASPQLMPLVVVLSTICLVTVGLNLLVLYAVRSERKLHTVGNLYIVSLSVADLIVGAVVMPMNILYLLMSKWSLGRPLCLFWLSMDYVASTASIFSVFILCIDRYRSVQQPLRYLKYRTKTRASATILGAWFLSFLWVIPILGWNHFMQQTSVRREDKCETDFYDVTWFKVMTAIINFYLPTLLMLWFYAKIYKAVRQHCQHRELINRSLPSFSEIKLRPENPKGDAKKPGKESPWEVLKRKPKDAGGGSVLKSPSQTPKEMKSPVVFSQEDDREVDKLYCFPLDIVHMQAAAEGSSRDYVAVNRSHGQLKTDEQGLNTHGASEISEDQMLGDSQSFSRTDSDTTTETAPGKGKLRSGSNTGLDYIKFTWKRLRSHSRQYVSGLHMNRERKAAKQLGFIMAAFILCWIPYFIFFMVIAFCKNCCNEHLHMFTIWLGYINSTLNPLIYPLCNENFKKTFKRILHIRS

Structure (SMILES)	CC50 at 96 h [1]	EC50 (Hepatitis C virus [2])	selectivity ratio ([3]; read-out: Ratio CC50/EC50)	further results
CC(c1ccccc1)N1CCN(Cc2cc(N(C)CCN(C)C)ccc2C#N)CC1 (stereo not drawn)	44.1 µM	1.03 µM	43	–
CN(C)CCN(C)c1ccc(C#N)c(CN2CCN(c3ccc(C(F)(F)F)cc3)CC2)c1	13.2 µM	0.013 µM	1010	–
CN(C)CCN(C)c1ccc(C#N)c(CN2CCN(C(c3ccccc3)c3ccc(Cl)cc3)CC2)c1 (stereo not drawn)	5.66 µM	0.004 µM	1410	Activity [4]: inactive; Activity (Hepatitis C virus [5]): inactive; Activity (Hepatitis C virus [6]): inactive; Activity (Hepatitis C virus [7]): Active; Activity (Hepatitis C virus [8]): inactive; Activity (Hepatitis C virus [9]): Active; Activity (Hepatitis C virus [10]): inactive; selectivity ratio [11]: 649; Activity (Hepatitis C virus [12]): Active; Activity (Hepatitis C virus [13]): Active
CC(c1ccccc1)N1CCN(Cc2cc(N3CCCN(C)CC3)ccc2C#N)CC1 (stereo not drawn)	31.3 µM	0.956 µM	33	–
CN(C)CCN(C)c1ccc(C(F)(F)F)c(CN2CCN(C(c3ccccc3)c3ccc(Cl)cc3)CC2)c1 (stereo not drawn)	6.96 µM	0.271 µM	26	–
CN(C)CCN(C)c1ccc(C#N)c(CN2CCN(C(c3ccccc3)c3ccccc3)CC2)c1	> 20 µM	0.045 µM	> 444	–
N#Cc1ccc(NCCCn2ccnc2)cc1CN1CCN(C(c2ccc(Cl)cc2)c2ccc(Cl)cc2)CC1	> 20 µM	0.11 µM	> 182	–
CC(C)OC(=O)[C@H](C)N[P@](=O)(OC[C@H]1O[C@@H](n2ccc(=O)[nH]c2=O)[C@](C)(F)[C@@H]1O)Oc1ccccc1 [SOFOSBUVIR]	> 200 µM	0.082 µM	> 2440	selectivity ratio ([3]; read-out: Ratio): > 3280; EC50 (Hepatitis C virus [14]): 0.129 µM; EC50 (Hepatitis C virus [15]): 0.18 µM; CC50 at 96 h [16]: 171 µM; CC50 at 96 h [17]: 121 µM; Activity (Hepacivirus hominis): inactive; selectivity ratio [11]: 1330; Activity (Hepatitis C virus [12]): inactive
CN(C)CCN(C)c1ccc(C#N)c(CN2CCN([C@@H](c3ccccc3)c3ccc(Cl)cc3)CC2)c1	8.78 µM	0.016 µM	549	–
CN(C)CCN(C)c1ccc(C#N)c(CN2CCN([C@H](c3ccccc3)c3ccc(Cl)cc3)CC2)c1	8.23 µM	0.01 µM	823	–
CN1CCCN(c2ccc(C#N)c(CN3CCN(C(c4ccccc4)c4ccc(Cl)cc4)CC3)c2)CC1 (stereo not drawn)	7.34 µM	0.004 µM	1930	MRT [18]: 8.59 h; AUC(0-inf) [19]: 848 ng·h/mL; EC50 (Hepatitis C virus [14]): 0.00333 µM; EC50 (Hepatitis C virus [15]): > 1.6 µM; CC50 at 96 h [16]: 3.72 µM; CC50 at 96 h [17]: 5.22 µM; half-life [20]: 4.87 h; Tmax [21]: 5.33 h; Cmax [22]: 97.9 ng/mL; concentration at 24 h [23]: 6.06 ng/mL; Activity (Hepacivirus hominis): Active; Activity [4]: inactive; Activity (Hepatitis C virus [5]): inactive; Activity (Hepatitis C virus [6]): inactive; Activity (Hepatitis C virus [7]): Active; Activity (Hepatitis C virus [8]): inactive; Activity (Hepatitis C virus [9]): Active; Activity (Hepatitis C virus [10]): inactive; Activity (Hepatitis C virus [12]): Active; Activity (Hepatitis C virus [13]): Active
CN(C)CCN(C)c1ccc(C#N)c(CN2CCN(C(c3ccc(F)cc3)c3ccc(F)cc3)CC2)c1	7.81 µM	0.008 µM	976	Activity (Hepacivirus hominis): Active
CN1CCCN(c2ccc(C#N)c(CN3CCN(c4ccc(Cl)cc4)CC3)c2)CC1	9.59 µM	0.11 µM	87	–
CN(C)CCN(C)c1ccc(C#N)c(CN2CCN(Cc3ccc(F)cc3)CC2)c1	52.7 µM	3.56 µM	14	–
CN1CCCN(c2ccc(C#N)c(CN3CCN(C(=O)c4ccc(Cl)cc4)CC3)c2)CC1	9.7 µM	> 4 µM	–	–
COCCOc1ccc(C#N)c(CN2CCN(c3ccc(C(F)(F)F)cc3)CC2)c1	2.97 µM	1.52 µM	–	–
N#Cc1ccc(NCCCn2ccnc2)cc1CN1CCN(C(c2ccc(F)cc2)c2ccc(F)cc2)CC1	5.89 µM	0.162 µM	36	–
